# According to US8822440B2, “Inhibiting cyclin D polypeptides” (Mayo Foundation for Medical Education and Research, priority 2006, dated 2014):
# Entries after “also recorded” stand apart in the source; their conditions may differ.
# Legend:
# [1] = test system: CCND2 promoter; test: CCND2 promoter-luciferase transactivation assay in NIH3T3 cells with or without c-maf; type: cell-based, mouse; details: for identified as putative inhibitor of CCND2 transactivation (screen hit): ~5 μM, hit = 50% or more reduction in luciferase relative to cell viability; for identified as putative inhibitor of CCND2 transactivation (screen hit) / effect on CCND2-luc expression, agent alone: 16 hours; for effect on kinetin riboside-induced suppression of CCND2 / effect on CCND2-luc expression, agent alone: NIH3T3 reporter cells; for effect on kinetin riboside-induced suppression of CCND2: with kinetin riboside; for effect on CCND2-luc expression, agent alone: 5 μM
# Experimental: Using this assay, Lopac (n=1280), Prestwick (n=1120), and Spectrum (n=2000) libraries of drugs and natural compounds were screened. In a parallel MTS assay, the effect of each compound on 3T3 viability was determined, allowing exclusion of compounds that caused secondary suppression of CCND2 due to non-specific cytotoxicity. […] These included monensin, patulin, β-lapachone, camptothecin, dihydrogambogic acid, gentian violet, thapsigargin, brefeldin A, pristimerin, and kinetin riboside.
# Full-length c-maf cDNA was subcloned into an IRES-GFP MIEV retroviral vector and introduced into NIH3T3 cells by infection. Stable clones expressing GFP and c-maf were selected by flow cytometry and immunoblotting, respectively. The promoter of human cyclin D2 (−894 to −4; Brooks et al., J. Biol. Chem., 271, 9090-9 (1996)), containing c-maf responsive element sequence (MARE), was cloned from DNA from HeLa cells and inserted into the pGLbasic firefly luciferase vector (Promega, Madison, Wis.) immediately upstream of the luciferase gene. This construct was co-transfected with pcDNA3 (containing a neomycin resistance gene) into both NIH3T3 wild type cells and NIH3T3 cells stably over-expressing c-maf-IRES-GFP. Cells stably expressing c-maf, GFP, and luciferase were selected.
# (§1) NIH3T3 cells stably expressing c-maf and the CCND2 promoter driving luciferase (13,000 cells per well) were plated in 96-well plates by a Biomek FX liquid handler (Beckman, Fullerton, Calif.). After the cells had adhered, they were treated with aliquots of molecules from LOPAC (Sigma, St. Louis, Mo.), Prestwick (Prestwick Chemical Inc, Illkirch, France) or Spectrum (Microsource Discovery Systems, Gaylordsville, Conn.) libraries of off-patent drugs and chemicals at a final concentration of ˜5 μM and <0.1% DMSO. Cells were incubated with compounds at 37° C. for 16 hours.
# Luciferase assay. Luciferase activity was assessed according to the manufacturer's instructions (Promega, Madison, Wis.). Briefly, the cell culture medium was removed using an EMBLA plate washer (Molecular Devices, X) and Glo Lysis buffer (Promega) was added by robot. After a 10-minute incubation, an equal volume of Bright-Glo Luciferase substrate (Promega) was added, and luminescence signal was detected with a 96-well Luminoskan luminescence plate reader (Thermo Labsystem, Waltham, Mass.) using a 5 second integration.
# Studies of kinetin riboside using 3T3-D2-luc cells. To examine CCND2 suppression induced by kinetin riboside, the reporter cells were exposed to kinetin riboside in combination with other drugs (all purchased from Sigma, St. Loius, Mo.) that influence CCND2 transcription or inhibit nucleoside transport or phosphorylation. NIH3T3 cells expressing the CCND2 promoter driving luciferase were incubated with kinetin riboside or vehicle control +/− forskolin, 4-(3-butoxy-4-methoxybenzyl)imidazolidin-2-one (BMBI), cantharadin, S-(4-Nitrobenzyl)-6-thioinosine (NBTI), or A-134974, as specified at 5 μM concentration for 16 hours at 37° C. […] Forskolin is a cell-permeable diterpenoid that activates adenylate cyclase resulting in increased cAMP concentration. BMBI (Sigma B8279) is an inhibitor of cAMP phosphodiesterase that also causes accumulation of cAMP. Cantharadin (C7632) is an inhibitor of protein phosphatase 2A and, from the library screen, mediates induction of CCND2. NBTI (Sigma N2255) is a potent adenosine uptake inhibitor, and A-134974 (Sigma A2846) is a selective inhibitor of adenosine kinase.
# (§2) In an optimized automated assay, NIH3T3 cells over-expressing c-maf and the human cyclin D2 promoter driving luc were plated in 96-well plates by robot and following adhesion were treated for 16 hours with compounds at a final concentration of ˜5 μM and <0.1% DMSO. As a control, cells were treated with buffer alone. […] Thus, each compound from the library was tested in at least two assays—luciferase for CCND2 activity and MTS for viability. The coefficient of variance (CV) of the assay was <10%.
# [2] = test system: NIH3T3 cells; type: cell-based, mouse; details: MTS
# Experimental: as §1
# (§3) Viability assay. The effects of screened compounds on cell viability was assessed by 3-(4,5-dimethyl[…])-5-(3-carboxymethoxyphenyl)-2-(4-sulfophenyl)-2-H-tetrazolium (MTS) assay according to the manufacture's instructions (Progmega, Madison, Wis.). MTS reagent (20 μL/well in 96 well plates) was added to cells, and these were then incubated at 37° C. for 4 hours. Absorbance at 490 nm was determined using a 96-well plate reader.
# as §2
# [3] = test system: CD138− hematopoietic cells; test: Unsorted myeloma patient bone marrow, flow cytometry: CD138- non-malignant cells; type: cell-based; details: for toxicity for normal / non-malignant patient hematopoietic cells: patient bone marrow
# Experimental: (§4) Flow cytometry. HMCL were treated as indicated and then washed in cold phosphate-buffered saline (PBS) and resuspended in buffer containing AnnexinV-FITC and propidium iodide (BD Biosciences, San Jose, Calif.) for 15 minutes at room temperature. Cells (10^5) were subsequently diluted and analyzed immediately by flow cytometry (FACScan, BD Biosciences, San Jose, Calif.) using CellQuest software. Patient bone marrow specimens were prepared and analyzed in a similar fashion using AnnexinV-FITC and anti-CD138-PE (BD Biosciences, San Jose, Calif.).
# (§5) As mouse embryos that lack any D-cyclins eventually die from hematopoietic failure (Kozar et al., Cell, 118, 477-91 (2004)), the bone marrow might be predicted to be one of the most sensitive non-malignant tissue to be affected by drugs targeting cyclin D expression. Unsorted bone marrow samples from myeloma patients were treated with kinetin riboside to assess the relative cytotoxicity of this drug on malignant versus non-malignant marrow cells. Bone marrow samples were first processed to remove non-nucleated red cells and were then treated for 48 hours with kinetin riboside (5 μM).
# [4] = test system: HMCL; test: Cell cycle profiling of HMCL by flow cytometry; type: cell-based, human; details: Example 1, HMCL
# Experimental: Cell cycle profiling. HMCL were incubated with drug or vehicle as indicated, washed and resuspended in 1 mL PBS. Ice cold ethanol was added dropwise to 75% with regular mixing, and suspensions were incubated at −20° C. for 1 hour. Cells were washed again with PBS and resuspended in 0.1 mL RNAse A (100 μg/mL) at room temperature for 5-10 minutes. Propidium iodide (200 μL×100 μg/mL) was added immediately prior to analysis by flow cytometry. Cellular aggregates were excluded using CellQuest Doublet Discriminator Module, and cell cycle profile was determined using ModFit LT Mac 3.1 SP2 (Verity Software House, TopSham, Me.).
# [5] = test system: human myeloma cell lines (HMCL); test: HMCL viability / cytotoxicity (MTT, MTS); type: cell-based
# Experimental: Subsequent validation studies using selected compounds in human myeloma cell lines (HMCL) confirmed successful suppression of both cyclin D2 and D1 polypeptides. Each of these compounds was then shown to be cytotoxic to a genetically diverse and standardized panel of 14 HMCL in MTT assays: monensin (10-760 nM), camptothecin (5-700 nM), dihydrogambogic acid (250-800 nM), pristimerin (150-500 nM), and kinetin riboside (2.5-20 μM). Cell cycle analysis confirmed induction of G0/G1 phase arrest for most compounds, consistent with cyclin D inhibition.
# as §3
# [6] = test system: CD138+ myeloma cells; test: Unsorted myeloma patient bone marrow, flow cytometry: CD138+ myeloma cells; type: cell-based, human; details: unsorted myeloma patient bone marrow samples
# Experimental: as §4, §5
# [7] = test system: caspase 9; test: Immunoblot of caspase 9 cleavage in HMCL; type: cell-based, human; details: A-134974 2 μM, kinetin riboside 10 μM
# Experimental: Immunoblotting. Cytosolic extracts were prepared from HMCL or purified patient CD138^+ myeloma cells following exposure to kinetin riboside. Cells were washed with cold PBS, resuspended in cold RIPA buffer (5×10^6 cells/100 μL) containing fresh protease and phosphatase inhibitors (Santa Cruz Biotechnology, Santa Cruz, Calif.) and incubated on ice for 30 minutes with gentle mixing. The supernatant was repossessed following high speed centrifugation, and protein concentrations were determined by the Bradford assay. Immunoblot assays were performed as described elsewhere (Krajewski et al., Anal. Biochem., 236:221-228 (1996)). Briefly, equal amounts of protein were separated by SDS-PAGE and transferred to a PVDF nitrocellulose membrane using a semi-dry apparatus. Membranes were blocked using 5% skim milk in Tris buffered saline and probed with monoclonal mouse anti-cyclin D1 (DCS-6, Biosource, Camarillo, Calif.), polyclonal rabbit anti-cyclin D2 (#2924, Cell Signalling Technology), monoclonal mouse anti-cyclin D3 (DCS-22, BioSource), polyclonal rabbit anti-c-Maf (M-153, Santa Cruz), polyclonal rabbit anti-Cleaved Caspase 9 (Asp315) (Cell Signaling Technology), monoclonal mouse anti-β-actin (Cell Signaling Technology) and/or monoclonal anti-a-tubulin (B-7)(Santa Cruz Biotechnology, Santa Cruz, Calif.). […]
# [8] = test system: cyclin D1, cyclin D2, cyclin D3; test: Immunoblot of cyclin D proteins in HMCL; type: cell-based, human; details: A-134974 2 μM, kinetin riboside 10 μM
# Experimental: Immunoblotting. Cytosolic extracts were prepared from HMCL or purified patient CD138^+ myeloma cells following exposure to kinetin riboside. Cells were washed with cold PBS, resuspended in cold RIPA buffer (5×10^6 cells/100 μL) containing fresh protease and phosphatase inhibitors (Santa Cruz Biotechnology, Santa Cruz, Calif.) and incubated on ice for 30 minutes with gentle mixing. The supernatant was repossessed following high speed centrifugation, and protein concentrations were determined by the Bradford assay. Immunoblot assays were performed as described elsewhere (Krajewski et al., Anal. Biochem., 236:221-228 (1996)). Briefly, equal amounts of protein were separated by SDS-PAGE and transferred to a PVDF nitrocellulose membrane using a semi-dry apparatus. Membranes were blocked using 5% skim milk in Tris buffered saline and probed with monoclonal mouse anti-cyclin D1 (DCS-6, Biosource, Camarillo, Calif.), polyclonal rabbit anti-cyclin D2 (#2924, Cell Signalling Technology), monoclonal mouse anti-cyclin D3 (DCS-22, BioSource), polyclonal rabbit anti-c-Maf (M-153, Santa Cruz), polyclonal rabbit anti-Cleaved Caspase 9 (Asp315) (Cell Signaling Technology), monoclonal mouse anti-β-actin (Cell Signaling Technology) and/or monoclonal anti-a-tubulin (B-7)(Santa Cruz Biotechnology, Santa Cruz, Calif.). Membrane proteins were visualized using HRP-conjugated species-specific secondary antibodies (Cell Signaling Technology) and enhanced chemiluminescence (Pierce, Rockford, Ill.).
compound,measurement,setting,value
CC[C@@]1(O)C[C@H](O[C@H]2C[C@H](N(C)C)[C@H](O)[C@H](C)O2)c2c(cc3c(c2O)C(=O)c2c(O)cccc2C3=O)[C@H]1C(=O)OC [aklavine],identified as putative inhibitor of CCND2 transactivation (screen hit),[1],putative suppressors of CCND2
same,effect on NIH3T3 viability,[2],excess NIH3T3 cytoxicity
C/C=C(/C)C(=O)O[C@H]1C(C)=C2[C@H]([C@@H]1OC(=O)CCCCCCC)[C@@](C)(OC(C)=O)C[C@H](OC(=O)CCC)[C@@]1(O)[C@H]2OC(=O)[C@@]1(C)O [thapsigargin],identified as putative inhibitor of CCND2 transactivation (screen hit),[1],putative CCND2 inhibitors
CN(C)c1ccc(C(=C2C=CC(=[N+](C)C)C=C2)c2ccc(N(C)C)cc2)cc1 [gentian violet],identified as putative inhibitor of CCND2 transactivation (screen hit),[1],putative CCND2 inhibitors; also recorded: putative suppressors of CCND2
"N[C@@H](Cc1ccc(N(CCCl)CCCl)cc1)C(=O)O [melphalan, reference compound]",effect on non-malignant CD138− marrow cells,"[3]; 48 hours, kinetin riboside 5 μM",killed proportionately more healthy CD138− marrow cells than malignant myeloma cells
"CC[C@@]1(O)C(=O)OCc2c1cc1n(c2=O)Cc2cc3ccccc3nc2-1 [camptothecin, reference compound]",identified as putative inhibitor of CCND2 transactivation (screen hit),[1],putative CCND2 inhibitors; also recorded: putative suppressors of CCND2
same,cell cycle arrest phase,[4],S-phase arrest
same,cytotoxic concentration across panel of 14 HMCL,"[5]; MTT assays, 14 HMCL",5 to 700 nM
"O=[N+]([O-])c1ccc(CSc2ncnc3c2ncn3[C@@H]2O[C@H](CO)[C@@H](O)[C@H]2O)cc1 [NBTI, S-(4-Nitrobenzyl)-6-thioinosine]",effect on kinetin riboside-induced suppression of CCND2,[1],does not block kinetin riboside function
C[C@@]12C(=O)OC(=O)[C@]1(C)[C@H]1CC[C@@H]2O1 [cantharadin],"effect on CCND2-luc expression, agent alone",[1],marked transactivation
CC(C)=CCCC1(C)C=Cc2c(O)c3c(c(CC=C(C)C)c2O1)OC12C(=CC4CC1C(C)(C)OC2(C/C=C(/C)C(=O)O)C4O)C3=O (stereo not shown) [dihydrogambogic acid],suppression of CCND2 promoter in absence or presence of c-maf,[1]; NIH3T3 CCND2-luc with or without c-maf,c-maf independent specific suppression of the CCND2 promoter
same,identified as putative inhibitor of CCND2 transactivation (screen hit),[1],putative CCND2 inhibitors; also recorded: putative suppressors of CCND2
same,activity against CD138+ myeloma cells compared with non malignant hematopoietic cells,[6],selective activity
same,cytotoxic concentration across panel of 14 HMCL,[5]; human,250 to 800 nM
Nc1ncnc2c1c(I)cn2[C@@H]1C[C@H](N)[C@@H](O)[C@H]1O [A-134974],effect on kinetin riboside-induced caspase 9 cleavage in HMCL,[7],prevents
same,"effect on CCND2-luc expression, agent alone",[1],minimal enhancement
same,effect on kinetin riboside-induced suppression of CCND2,[1],completely inhibits
same,effect on cyclin D1 and D2 levels in kinetin riboside-treated HMCL,[8],partially rescues
same,effect on NIH3T3 viability,[2],no effect on 3T3 cell viability
"CC1(C)CCC2=C(O1)c1ccccc1C(=O)C2=O [β-lapachone, reference compound]",identified as putative inhibitor of CCND2 transactivation (screen hit),[1],putative CCND2 inhibitors
same,cell cycle arrest phase,[4],S-phase arrest
N=C1C=CC(=C(c2ccc(N)cc2)c2ccc(N)cc2)C=C1 [pararosaniline pamoate],identified as putative inhibitor of CCND2 transactivation (screen hit),[1],putative suppressors of CCND2
C[C@H]1CCC/C=C/[C@@H]2C[C@H](O)C[C@H]2[C@H](O)/C=C/C(=O)O1 [brefeldin A],identified as putative inhibitor of CCND2 transactivation (screen hit),[1],putative CCND2 inhibitors
"CC[C@@]1([C@@H]2O[C@@H]([C@H]3O[C@@](O)(CO)[C@H](C)C[C@@H]3C)C[C@@H]2C)CC[C@H]([C@]2(C)CC[C@]3(C[C@H](O)[C@@H](C)[C@@H]([C@@H](C)[C@@H](OC)[C@H](C)C(=O)O)O3)O2)O1 [monensin, reference compound]",identified as putative inhibitor of CCND2 transactivation (screen hit),[1],putative CCND2 inhibitors; also recorded: putative suppressors of CCND2
same,toxicity for normal / non-malignant patient hematopoietic cells,[3],almost equal toxicity for normal cells
same,toxicity for normal / non-malignant patient hematopoietic cells,[3]; listed as Monensin,excessive non-specific toxicity
same,cytotoxic concentration across panel of 14 HMCL,[5]; human,10 to 760 nM
"CCCCOc1cc(CC2CNC(=O)N2)ccc1OC (stereo not shown) [BMBI, 4-(3-butoxy-4-methoxybenzyl)imidazolidin-2-one]","effect on CCND2-luc expression, agent alone",[1],CCND2 transactivation
